Here are results for ten compounds from patent publication US11427548B2 (Arvinas Operations, Inc., priority 2015, dated 2022).

As usually defined, the Dmax is the greatest extent of degradation seen. As usually defined, the DC50 is the midpoint of the concentration-degradation curve.

The structures appear in SMILES notation. Where two headings read alike, the source gives them in different places.

The target in the assay is T1, Androgen Receptor (Homo sapiens, UniProt P10275).
T1 construct: endogenous in cells; host or cells: VCaP cells
T1 sequence (P10275 1-920): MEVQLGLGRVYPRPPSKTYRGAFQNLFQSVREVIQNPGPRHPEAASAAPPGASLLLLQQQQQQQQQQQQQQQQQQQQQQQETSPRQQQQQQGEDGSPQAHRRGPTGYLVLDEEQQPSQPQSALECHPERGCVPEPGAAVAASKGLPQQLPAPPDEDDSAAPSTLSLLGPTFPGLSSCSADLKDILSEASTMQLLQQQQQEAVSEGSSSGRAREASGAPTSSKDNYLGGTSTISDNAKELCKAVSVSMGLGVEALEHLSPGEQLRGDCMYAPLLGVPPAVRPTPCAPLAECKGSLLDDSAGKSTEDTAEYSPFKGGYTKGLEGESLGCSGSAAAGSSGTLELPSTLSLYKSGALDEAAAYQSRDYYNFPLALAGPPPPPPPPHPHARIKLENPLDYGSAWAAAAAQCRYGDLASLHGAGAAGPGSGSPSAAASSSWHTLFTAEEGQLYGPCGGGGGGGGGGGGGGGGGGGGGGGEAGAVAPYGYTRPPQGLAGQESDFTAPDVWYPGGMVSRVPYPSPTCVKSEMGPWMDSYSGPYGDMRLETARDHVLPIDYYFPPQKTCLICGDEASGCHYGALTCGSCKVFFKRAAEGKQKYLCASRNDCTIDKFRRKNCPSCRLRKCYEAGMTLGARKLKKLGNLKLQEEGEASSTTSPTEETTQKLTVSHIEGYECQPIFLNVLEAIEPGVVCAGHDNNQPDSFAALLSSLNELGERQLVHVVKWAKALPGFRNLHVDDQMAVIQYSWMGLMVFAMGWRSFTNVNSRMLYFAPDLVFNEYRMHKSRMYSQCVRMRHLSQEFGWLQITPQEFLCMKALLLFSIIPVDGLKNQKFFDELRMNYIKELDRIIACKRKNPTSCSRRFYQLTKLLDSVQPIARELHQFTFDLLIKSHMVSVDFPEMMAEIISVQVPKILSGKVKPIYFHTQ
The assay is described as follows: Androgen Receptor ELISA assay (PathScan AR ELISA) in VCaP cells: AR degradation, Dmax and DC50. The assay is classed as cell-based. As for the experimental part: 1. Androgen Receptor ELISA Assay.
The protocols used with VCaP cells are described below. The androgen receptor ELISA assay was performed using PathScan AR ELISA (Cell Signaling Catalog #12850) according to the following assay steps:
VCaP cells are seeded at 30,000 cells/well at a volume of 200 μL/well in VCaP assay medium [Phenol red free RPMI (Gibco Cat #11835-030); 5% Charcoal Stripped (Dextran treated) FBS (Omega Scientific, Cat #FB-04); Pen/Strep Life Technologies (Gibco Cat #: 10378-016); 0.1 nM R1881 (Sigma, Cat #R0908) is added upon the start of the assay, not during initial plating of the cells) in Corning 3904 plates. The cells are grown for a minimum of 3 days.
First, cells are dosed with compounds diluted in 0.1% DMSO—use a polypropylene plate according to the following protocol: (1)(i) make 1000× stock plate in DMSO; (ii) 20 mM stock diluted 1/6.7 with DMSO (5 μL+28.3 μL DMSO)=3 mM into row H; (iii) perform serial dilutions in ½ log doses (10 μL of PROTAC+20 μL DMSO) from row H towards row B. Reserve row A for DMSO; (iv) 7 doses total (final concentration in this 1000× plate will be 3 mM, 1 mM, 333 μM, 111 μM, etc). (2)(i) Make 10× stock plate in media; (ii) transfer 2.5 μL of the 1000× stock to a new 10× stock plate (use 12 channel pipet, start at A (DMSO control) work thru H. When 247.5 μL of media is added to this plate, it will serve as a 10× stock; (iii) make media+1 nM R1881 for making 10× stock plate; (iv) add 247.5 μL of media with 1 nM R1881 to each well of the 10× stock plate, mix.
Then 22 μL of 10× stock is added to cells and incubated for 24 h. 1× Cell Signaling Cell lysis buffer is made (Catalogue #9803; comes with the kit)—prepare for 50 μL/well. Keep on ice. Media is aspirated, and 50 μL 1× cell lysis buffer/well is added. The cells are placed on ice for 10 minutes. The solution is mixed and transferred to PCR plate, and centrifuged at 4C for 10 minutes at 4000 rpm.
5 μL is transferred to fresh plate (use immediately or freeze −80 C); 115 μL ELISA Dilutant is added (0.15 ug/ml-0.075 ug/ml; comes with the PathScan ELISA).
Add 100 μL/well AR Elisa; cover and shake, 37 C for 2 hrs; dump, tap, wash 4×200 μL ELISA wash buffer; add 100 μL/well mouse AR detection Ab; cover and shake, 37 C for 1 hr; dump, tap, wash 4×200 μL ELISA wash buffer; add 100 μL/well anti-mouse—HRP conjugated Ab (comes with the kit); cover and shake, 37 C for 30 min; allow TMB reagent to come to room temperature; dump, tap, wash 4×200 μL Elisa wash buffer; tap; add 100 μL TMB, shake 5 min—while watching color. Add the stop reagent when light blue color develops. Add 100 μL Stop solution; shake and read at 450 nm.
(An ELISA detects its analyte on a solid surface through an enzyme-linked reagent.)

Setting [1] is: read-out: VCaP DC50; VCaP cells; Table 35.
[2] abbreviates: read-out: VCaP DC50; VCaP cells; Table 36.
[3] abbreviates: read-out: VCaP DC50; concentration that caused 50% Androgen Receptor degradation, VCaP cells (Table 32).

As to `Cc1ncsc1-c1ccc([C@H](C)NC(=O)[C@@H]2C[C@@H](O)CN2C(=O)[C@@H](NC(=O)COc2ccc(O[C@H]3CC[C@H](Oc4ccc(N5C(=S)N(c6ccc(C#N)c(C(F)(F)F)c6)C(=O)C5(C)C)cc4)CC3)nc2)C(C)(C)C)cc1` (racemic) [Example 421], the Dmax (VCaP, read-out: VCaP Dmax (%)) lay in the range of 26 to 50%. Besides, the DC50 under setting [1] fell in the range of 51 to 500 nM. In the same order, the values of `Cc1nccn1-c1ccc([C@H](C)NC(=O)[C@@H]2C[C@@H](O)CN2C(=O)C(C(C)C)n2cc(OCCCOCCCCCOc3ccc(N4C(=S)N(c5ccc(C#N)c(C(F)(F)F)c5)C(=O)C4(C)C)cc3)cn2)nc1` (mixture of isomers) [Example 423] are less than 25% and greater than 501 nM. Regarding `Cc1ncsc1-c1ccc(CNC(=O)[C@@H]2C[C@@H](O)CN2C(=O)[C@@H](C(C)C)n2cc(OCCCOCCCCCOc3ccc(N4C(=S)N(c5ccc(C#N)c(C(F)(F)F)c5)C(=O)C4(C)C)cc3)cn2)nc1` (racemic) [Example 431], under “VCaP, read-out: VCaP Dmax (%)”, the Dmax is less than 25%. Also, under setting [1], the DC50 is greater than 501 nM.

Consider `Cc1ncsc1-c1ccc(CNC(=O)[C@@H]2C[C@@H](O)CN2C(=O)[C@@H](C(C)C)n2cc(OCC#CC#CCOc3ccc(N4C(=S)N(c5ccc(C#N)c(C(F)(F)F)c5)C(=O)C4(C)C)cc3)cn2)cc1` (racemic) [Example 616, 1-(2-(4-((6-(4-(3-(4-cyano-3-(trifluoromethyl)phenyl)-5,5-dimethyl-4-oxo-2-thioxoimidazolidin-1-yl)phenoxy)hexa-2,4-diyn-1-yl)oxy)-1H-pyrazol-1-yl)-3-methylbutanoyl)-4-hydroxy-N-(4-(4-methylthiazol-5-yl)benzyl)pyrrolidine-2-carboxamide], for which the Dmax (VCaP, read-out: VCaP Dmax (%)) is less than 25%. Under setting [2], the 50% degradation concentration (DC50) was greater than 501 nM. In the case of `Cc1ncsc1-c1ccc(CNC(=O)[C@@H]2C[C@@H](O)CN2C(=O)[C@@H](NC(=O)COC(C)CCCOc2ccc(-c3ccc(N4C(=S)N(c5ccc(C#N)c(C(F)(F)F)c5)C(=O)C4(C)C)cc3)cc2)C(C)(C)C)cc1` (stereo in doubt) [Example 147, (2S,4R)-1-[(2S)-2-(2-{[(2S)-5-[4-(4-{3-[4-cyano-3-(trifluoromethyl)phenyl]-5,5-dimethyl-4-oxo-2-sulfanylideneimidazolidin-1-yl}phenyl)phenoxy]pentan-2-yl]oxy}acetamido)-3,3-dimethylbutanoyl]-4-hydroxy-N-{[4-(4-methyl-1,3-thiazol-5-yl)phenyl]methyl}pyrrolidine-2-carboxamide], under “VCaP, read-out: VCaP Dmax (%)”, the Dmax is greater than 71%. For the same compound, under setting [3], the DC50 was less than 50 nM.

In the case of `Cc1ncsc1-c1ccc(CNC(=O)[C@@H]2C[C@@H](O)CN2C(=O)[C@@H](NC(=O)COC(C)CCCOc2ccc(-c3ccc(N4C(=S)N(c5ccc(C#N)c(C(F)(F)F)c5)C(=O)C4(C)C)cc3)cc2)C(C)(C)C)cc1` (stereo in doubt) [Example 148, (2S,4R)-1-[(2S)-2-(2-{[(2R)-5-[4-(4-{3-[4-cyano-3-(trifluoromethyl)phenyl]-5,5-dimethyl-4-oxo-2-sulfanylideneimidazolidin-1-yl}phenyl)phenoxy]pentan-2-yl]oxy}acetamido)-3,3-dimethylbutanoyl]-4-hydroxy-N-{[4-(4-methyl-1,3-thiazol-5-yl)phenyl]methyl}pyrrolidine-2-carboxamide], where the note is “VCaP, read-out: VCaP Dmax (%)”, the Dmax is greater than 71%. Also, the DC50 under setting [3] was less than 50 nM.

Take `Cc1ncsc1-c1ccc(CNC(=O)[C@@H]2C[C@@H](O)CN2C(=O)C(C(C)C)n2cc(Oc3cccc(OCCCCCOc4ccc(N5C(=S)N(c6ccc(C#N)c(C(F)(F)F)c6)C(=O)C5(C)C)cc4)c3)cn2)cc1` (stereo in doubt) [Example 602, (2S,4R)-1-((R)-2-(4-(3-((5-(4-(3-(4-cyano-3-(trifluoromethyl)phenyl)-5,5-dimethyl-4-oxo-2-thioxoimidazolidin-1-yl)phenoxy)pentyl)oxy)phenoxy)-1H-pyrazol-1-yl)-3-methylbutanoyl)-4-hydroxy-N-(4-(4-methylthiazol-5-yl)benzyl)pyrrolidine-2-carboxamide]: the DC50 under setting [2] was greater than 501 nM.

In the case of `Cc1ncsc1-c1ccc([C@H](C)NC(=O)[C@@H]2C[C@H](O)CN2C(=O)[C@@H](NC(=O)COCCN2CCN(c3ccc(C(=O)N[C@H]4C(C)(C)[C@H](Oc5ccc(C#N)c(Cl)c5)C4(C)C)cn3)CC2)C(C)(C)C)cc1` (stereo in doubt) [Example 608, N-((1r,3r)-3-(3-chloro-4-cyanophenoxy)-2,2,4,4-tetramethylcyclobutyl)-6-(4-(2-(2-(((S)-1-((2S,4R)-4-hydroxy-2-(((S)-1-(4-(4-methylthiazol-5-yl)phenyl)ethyl)carbamoyl)pyrrolidin-1-yl)-3,3-dimethyl-1-oxobutan-2-yl)amino)-2-oxoethoxy)ethyl)piperazin-1-yl)nicotinamide], the DC50 (VCaP cells; Table 36; read-out: VCaP DC50) is less than 50 nM. For the same compound, the Dmax (VCaP, VCaP cells; Table 36; read-out: VCaP Dmax (%)) was greater than 71%.

Regarding `Cc1nccn1-c1ccc([C@H](C)NC(=O)[C@@H]2C[C@@H](O)CN2C(=O)C(C(C)C)n2cc(OCCCOCCCCCOc3ccc(N4C(=S)N(c5ccc(C#N)c(C(F)(F)F)c5)C(=O)C4(C)C)cc3)cn2)cc1` (stereo in doubt) [Example 612, (2S,4R)-1-((R)-2-(4-(3-((5-(4-(3-(4-cyano-3-(trifluoromethyl)phenyl)-5,5-dimethyl-4-oxo-2-thioxoimidazolidin-1-yl)phenoxy)pentyl)oxy)propoxy)-1H-pyrazol-1-yl)-3-methylbutanoyl)-4-hydroxy-N-((S)-1-(4-(2-methyl-1H-imidazol-1-yl)phenyl)ethyl)pyrrolidine-2-carboxamide], the “VCaP Dmax (%)” value (VCaP cells; Table 36) is “_+”. Under setting [2], the DC50 was greater than 501 nM.

For `Cc1ncsc1-c1ccc(CNC(=O)[C@@H]2C[C@@H](O)CN2C(=O)[C@@H](NC(=O)COCCCOCCC(O)CCOc2ccc(N3C(=S)N(c4ccc(C#N)c(C(F)(F)F)c4)C(=O)C3(C)C)cc2)C(C)(C)C)cc1` (stereo partly drawn) [Example 13, (2S,4R)-1-[(2S)-2-[2-(3-{[5-(4-{3-[4-cyano-3-(trifluoromethyl)phenyl]-5,5-dimethyl-4-oxo-2-sulfanylideneimidazolidin-1-yl}phenoxy)-3-hydroxypentyl]oxy}propoxy)acetamido]-3,3-dimethylbutanoyl]-4-hydroxy-N-{[4-(4-methyl-1,3-thiazol-5-yl)phenyl]methyl}pyrrolidine-2-carboxamide], the Dmax (VCaP, read-out: VCaP Dmax (%)) lay in the range of 26 to 50%. In addition, the DC50 (read-out: VCaP DC50; concentration that caused 50% Androgen Receptor degradation, VCaP cells) is less than 50 nM.
